The record followed here is paper PMC8225008, “Development of Non-Ethoxypropanoic Acid Type Cryptochrome Inhibitors with Circadian Molecular Clock-Enhancing Activity by Bioisosteric Replacement” (Pharmaceuticals, 2021).

One experiment deals with T1, hCRY2 (Homo sapiens, UniProt Q49AN0).
T1 construct: GST; purchased MyBioSource; host or cells: baculovirus expression system
T1 sequence (Q49AN0 1-593): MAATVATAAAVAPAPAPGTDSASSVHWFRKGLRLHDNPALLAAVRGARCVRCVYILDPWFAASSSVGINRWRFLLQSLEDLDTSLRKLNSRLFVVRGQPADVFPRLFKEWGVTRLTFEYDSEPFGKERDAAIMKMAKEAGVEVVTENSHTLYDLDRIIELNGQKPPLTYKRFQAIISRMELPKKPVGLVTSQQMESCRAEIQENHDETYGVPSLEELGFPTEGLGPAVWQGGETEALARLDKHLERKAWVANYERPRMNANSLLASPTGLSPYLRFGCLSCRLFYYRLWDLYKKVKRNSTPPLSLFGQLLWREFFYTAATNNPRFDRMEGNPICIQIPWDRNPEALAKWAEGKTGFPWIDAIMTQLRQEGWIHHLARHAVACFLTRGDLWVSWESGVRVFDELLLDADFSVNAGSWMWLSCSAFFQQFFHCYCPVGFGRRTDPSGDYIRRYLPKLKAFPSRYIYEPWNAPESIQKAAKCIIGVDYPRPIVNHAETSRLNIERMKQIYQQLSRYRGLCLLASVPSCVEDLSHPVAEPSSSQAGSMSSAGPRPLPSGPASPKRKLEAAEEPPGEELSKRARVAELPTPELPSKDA
Description: Surface plasmon resonance, CRY2. In kind it is binding. The following applies: SPR, His-tagged CRY2, Langmuir 1:1 model. The procedure: We used a ProteOn XPR36 system (Bio-Rad, Hercules, CA, USA) equipped with a HTE sensor chip (high capacity tris-NTA for histidine-tagged […] capture, Bio-Rad) for surface plasmon resonance analyses. Purified target proteins (6xHis- and GST-tagged hCRY1 and hCRY2) were prepared by a baculovirus expression system (MyBioSource, San Diego, CA, USA). Phosphate buffered saline (PBS) plus 0.005% Tween 20 was used as the running buffer. The 6xHis-hCRY1 and 6xHis-hCRY2 proteins were immobilized onto separate channels of a HTE chip by injecting 210 μL protein sample (2.0 μg/mL) into flow cells (30 μL/min) to allow saturation. Serially diluted compound 2d samples (50–800 μM) were prepared in 4% DMSO in TBS-T buffer. […] Recorded resonance units (RU) were normalized and plotted against chemical concentration. […]
The EC50 values for luciferase reporter assay were calculated based on a logistic four-parametric equation using the mean values of intrinsic activation (SigmaPlot 10.0; Systat Software Inc., San Jose, CA, USA). The IC50 and t1/2 values for the cytochrome P450 inhibition assay and metabolic stability test were calculated by WinNonlin software (Pharsight, Mountain View, CA, USA). Pharmacokinetic parameters were calculated using non-compartmental analysis (WinNonlin v.8.3; Pharsight, Mountain View, CA, USA). […]

Another experiment concerns the target T2, CYP2D6 (Homo sapiens, UniProt P10635).
T2 construct: pooled human liver microsomes (HLMs, XTreme 200, XenoTech, Lenexa, KS, USA); tissue XenoTech XTreme 200; host or cells: pooled human liver microsomes
In words: Cytochrome P450 inhibition assay (cocktail method, human liver microsomes), dextromethorphan O-demethylation. In kind it is in vitro ADME. Here is the method: The inhibitory effects of KS15 and compound 5d on the metabolism of five cytochrome P450 (P450) probe substrates were evaluated using previous methods with slight modifications. The following P450 probe substrates were used: phenacetin (100 μM) for CYP1A2, tolbutamide (100 μM) for CYP2C9, omeprazole (20 μM) for CYP2C19, dextromethorphan (5 μM) for CYP2D6, and midazolam (5 μM) for CYP3A. Incubation mixtures containing pooled human liver microsomes (HLMs, XTreme 200, XenoTech, Lenexa, KS, USA), P450 probe substrates, and KS15 or compound 5d (final concentrations: 0, 0.5, 2, 5, 20, and 50 μM) were preincubated for 5 min at 37 °C. […] After centrifugation at 18,000× g (5 min, 4 °C), supernatant aliquots were analyzed by liquid chromatography-tandem mass spectrometry (LC-MS/MS). […]
All metabolites and IS were separated on a Kinetex C18 column (100 mm × 2.1 mm, 2.6 μm ID., Phenomenex, Torrance, CA, USA) and analyzed using an LC-MS/MS system (LCMS 8060, Shimadzu, Tokyo, Japan) equipped with an electrospray ionization (ESI) interface. […]
The EC50 values for luciferase reporter assay were calculated based on a logistic four-parametric equation using the mean values of intrinsic activation (SigmaPlot 10.0; Systat Software Inc., San Jose, CA, USA). […] Pharmacokinetic parameters were calculated using non-compartmental analysis (WinNonlin v.8.3; Pharsight, Mountain View, CA, USA). […]

SMILES strings stand for the structures.

T2 sequence (P10635 whole entry): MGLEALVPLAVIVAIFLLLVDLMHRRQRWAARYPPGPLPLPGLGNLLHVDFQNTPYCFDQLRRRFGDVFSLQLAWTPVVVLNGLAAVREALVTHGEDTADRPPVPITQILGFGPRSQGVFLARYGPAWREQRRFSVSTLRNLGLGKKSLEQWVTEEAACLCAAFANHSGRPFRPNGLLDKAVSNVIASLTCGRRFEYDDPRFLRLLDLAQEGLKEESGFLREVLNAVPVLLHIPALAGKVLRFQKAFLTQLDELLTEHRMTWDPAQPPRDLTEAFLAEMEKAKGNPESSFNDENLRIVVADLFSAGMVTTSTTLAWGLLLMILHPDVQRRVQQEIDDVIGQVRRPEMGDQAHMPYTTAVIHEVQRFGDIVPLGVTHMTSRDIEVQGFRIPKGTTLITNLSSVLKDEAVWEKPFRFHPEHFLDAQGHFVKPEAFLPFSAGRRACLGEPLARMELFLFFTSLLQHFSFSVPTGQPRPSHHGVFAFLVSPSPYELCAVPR

As for `CC(=NOCc1ccc([N+](=O)[O-])cc1)c1cccc(OCC(=O)O)c1` [Compound 2d, 2-(3-(1-(((4-nitrobenzyl)oxy)imino)ethyl)phenoxy)acetic acid], on hCRY2, binding was put at a Kd of 380 µM.

Compound `COC(=O)COc1cccc(C(C)=NOCc2ccc([N+](=O)[O-])cc2)c1` [Compound 5d, Methyl 2-(3-(1-(((4-nitrobenzyl)oxy)imino)ethyl)phenoxy)acetate] came in with an IC50 against CYP2D6 of over 50 µM.
